# Source: US10174021B2, “Substituted pyrazolo[1,5-A]pyridines and their use” (BAYER PHARMA AKTIENGESELLSCHAFT, priority 2014, dated 2019)
# Where a name gives a salt, the structure may show the parent alone.
# Tested on: recombinant guanylate cyclase reporter cell line
# Experiment: Effect on a recombinant guanylate cyclase reporter cell line
# Format: cell-based
# Settings: in some cases mean values from individual determinations, read-out: MEC (minimum effective concentration)
# Procedure: B-2. Effect on a Recombinant Guanylate Cyclase Reporter Cell Line
# The cellular activity of the compounds according to the invention is determined using a recombinant guanylate cyclase reporter cell line, as described in F. Wunder et al., Anal. Biochem. 339, 104-112 (2005).
# Representative MEC values (MEC=minimum effective concentration) for the compounds of the invention are shown in the table below (in some cases as mean values from individual determinations): […]
row,SMILES,minimal effective concentration
1,"Cc1cc(OCc2c(F)cccc2F)n2nc(C)c(-c3cnc(Cl)c(C)c3)c2c1 [Example 9, 3-(6-Chloro-5-methylpyridin-3-yl)-7-[(2,6-difluorobenzyl)oxy]-2,5-dimethylpyrazolo[1,5-a]pyridine]",3 µM
2,"CCN(C)Cc1cccc(-c2c(C)nn3c(OCc4c(F)cccc4F)cc(C)cc23)c1 [Example 10, N-(3-{7-[(2,6-Difluorobenzyl)oxy]-2,5-dimethylpyrazolo[1,5-a]pyridin-3-yl}benzyl)-N-methylethanamine]",0.065 µM
3,"Cc1cc(OCc2c(F)cccc2F)n2nc(C)c(-c3cnn(CCc4c(C)n[nH]c4C)c3)c2c1 [Example 25, 7-[(2,6-Difluorobenzyl)oxy]-3-{1-[2-(3,5-dimethyl-1H-pyrazol-4-yl)ethyl]-1H-pyrazol-4-yl}-2,5-dimethylpyrazolo[1,5-a]pyridine]",0.065 µM
4,"Cc1cc(OCc2c(F)cccc2F)n2nc(C)c(-c3cnn(CCC(=O)O)c3)c2c1 [Example 22, 3-(4-{7-[(2,6-Difluorobenzyl)oxy]-2,5-dimethylpyrazolo[1,5-a]pyridin-3-yl}-1H-pyrazol-1-yl)propanoic acid trifluoroacetate]",0.1 µM
5,"Cc1cc(OCc2c(F)cccc2F)n2nc(C)c(-c3cccc(NS(C)(=O)=O)c3)c2c1 [Example 13, N-(3-{7-[(2,6-Difluorobenzyl)oxy]-2,5-dimethylpyrazolo[1,5-a]pyridin-3-yl}phenyl)methansulphonamide]",0.1 µM
6,"Cc1cc(OCc2c(F)cccc2F)n2nc(C)c(-c3nc(N)c4c(n3)NC(=O)C4(C)C)c2c1 [Example 34, 4-Amino-2-{7-[(2,6-difluorobenzyl)oxy]-2,5-dimethylpyrazolo[1,5-a]pyridin-3-yl}-5,5-dimethyl-5,7-dihydro-6H-pyrrolo[2,3-d]pyrimidin-6-one trifluoroacetate]",1 µM
7,"CC(=O)Nc1cccc(-c2c(C)nn3c(OCc4c(F)cccc4F)cc(C)cc23)c1 [Example 3, 1-(3-{7-[(2,6-Difluorobenzyl)oxy]-2,5-dimethylpyrazolo[1,5-a]pyridin-3-yl}phenyl)acetamide]",0.065 µM
8,"CCOC(=O)c1cncc(-c2c(C)nn3c(OCc4c(F)cccc4F)cc(C)cc23)c1 [Example 18, Ethyl 5-{7-[(2,6-difluorobenzyl)oxy]-2,5-dimethylpyrazolo[1,5-a]pyridin-3-yl}nicotinate]",10 µM
9,"Cc1cc(OCc2c(F)cccc2F)n2nc(C)c(-c3csc(CN4CCOCC4)c3)c2c1 [Example 4, 7-[(2,6-Difluorobenzyl)oxy]-2,5-dimethyl-3-[5-(morpholin-4-ylmethyl)-3-thienyl]pyrazolo[1,5-a]pyridine]",0.07 µM
10,"COC(=O)CCn1cc(-c2c(C)nn3c(OCc4c(F)cccc4F)cc(C)cc23)cn1 [Example 21, Methyl 3-(4-{7-[(2,6-difluorobenzyl)oxy]-2,5-dimethylpyrazolo[1,5-a]pyridin-3-yl}-1H-pyrazol-1-yl)propanoate trifluoroacetate]",0.03 µM
11,"Cc1cc(OCC2CCCCC2)n2nc(C)c(-c3cnn(CCN4CCOCC4)c3)c2c1 [Example 33, 7-(Cyclohexylmethoxy)-2,5-dimethyl-3-{1-[2-(morpholin-4-yl)ethyl]-1H-pyrazol-4-yl}pyrazolo[1,5-a]pyridine]",0.1 µM
12,"Cc1cc(OCc2c(F)cccc2F)n2nc(C)c(-c3cnn(CCC(=O)NC4CC4)c3)c2c1 [Example 23, N-Cyclopropyl-3-(4-{7-[(2,6-difluorobenzyl)oxy]-2,5-dimethylpyrazolo[1,5-a]pyridin-3-yl}-1H-pyrazol-1-yl)propanamide]",0.03 µM
13,"Cc1cc(OCc2c(F)cccc2F)n2nc(C)c(-c3cnn(CCN4CCOCC4)c3)c2c1 [Example 5, 7-[(2,6-Difluorobenzyl)oxy]-2,5-dimethyl-3-{1-[2-(morpholin-4-yl)ethyl]-1H-pyrazol-4-yl}pyrazolo[1,5-a]pyridine]",0.07 µM
14,"Cc1cc(OCc2c(F)cccc2F)n2nc(C)c(-c3cncc(C(N)=O)c3)c2c1 [Example 28, 5-{7-[(2,6-Difluorobenzyl)oxy]-2,5-dimethylpyrazolo[1,5-a]pyridin-3-yl}nicotinamide]",0.03 µM
15,"Cc1cc(OCc2c(F)cccc2F)n2nc(C)c(-c3nc(NCC(C)(C)N)c4c(n3)NC(=O)C4(C)C)c2c1 [Example 35, 4-[(2-Amino-2-methylpropyl)amino]-2-{7-[(2,6-difluorobenzyl)oxy]-2,5-dimethylpyrazolo[1,5-a]pyridin-3-yl}-5,5-dimethyl-5,7-dihydro-6H-pyrrolo[2,3-d]pyrimidin-6-one]",3 µM
16,"Cc1cc(OCc2c(F)cccc2F)n2nc(C)c(-c3cccc(N4CCCC4)c3)c2c1 [Example 14, 7-[(2,6-Difluorobenzyl)oxy]-2,5-dimethyl-3-[3-(pyrrolidin-1-yl)phenyl]pyrazolo[1,5-a]pyridine]",2 µM
17,"Cc1cc(OCc2c(F)cccc2F)n2nc(C)c(-c3cn[nH]c3)c2c1 [Example 1, 7-[(2,6-Difluorobenzyl)oxy]-2,5-dimethyl-3-(1H-pyrazol-4-yl)pyrazolo[1,5-a]pyridine]",0.03 µM

row,SMILES,minimal effective concentration
1,"Cc1cc(OCc2c(F)cccc2F)n2nc(C)c(-c3cnn(-c4ccc(F)cc4)c3)c2c1 [Example 8, 7-[(2,6-Difluorobenzyl)oxy]-3-[1-(4-fluorophenyl)-1H-pyrazol-4-yl]-2,5-dimethylpyrazolo[1,5-a]pyridine]",1 µM
2,"Cc1cn2c(-c3cn[nH]c3)c(C)nc2c(OCc2c(F)cccc2F)n1 [Example 19, 8-[(2,6-Difluorobenzyl)oxy]-2,6-dimethyl-3-(1H-pyrazol-4-yl)imidazo[1,2-a]pyrazine trifluoroacetate]",0.3 µM
3,"Cc1cc(OCc2c(F)cccc2F)n2nc(C)c(-c3cncnc3)c2c1 [Example 29, 7-[(2,6-Difluorobenzyl)oxy]-2,5-dimethyl-3-(pyrimidin-5-yl)pyrazolo[1,5-a]pyridine]",0.3 µM
4,"Cc1cc(OCc2c(F)cccc2F)n2nc(C)c(-c3cnn(Cc4ccccc4)c3)c2c1 [Example 6, 3-(1-Benzyl-1H-pyrazol-4-yl)-7-[(2,6-difluorobenzyl)oxy]-2,5-dimethylpyrazolo[1,5-a]pyridine]",0.1 µM
5,"Cc1cc(OCc2c(F)cccc2F)n2nc(C)c(-c3ccnc(N4CCNCC4)c3)c2c1 [Example 15, 7-[(2,6-Difluorobenzyl)oxy]-2,5-dimethyl-3-[2-(piperazin-1-yl)pyridin-4-yl]pyrazolo[1,5-a]pyridine]",0.3 µM
6,"Cc1cc(OCc2c(F)cccc2F)n2nc(C)c(-c3cnn(CCO)c3)c2c1 [Example 24, 2-(4-{7-[(2,6-Difluorobenzyl)oxy]-2,5-dimethylpyrazolo[1,5-a]pyridin-3-yl}-1H-pyrazol-1-yl)ethanol trifluoroacetate]",0.065 µM
7,"Cc1cc(OCc2c(F)cccc2F)n2nc(C3CC3)c(-c3cn[nH]c3)c2c1 [Example 31, 2-Cyclopropyl-7-[(2,6-difluorobenzyl)oxy]-5-methyl-3-(1H-pyrazol-4-yl)pyrazolo[1,5-a]pyridine]",0.03 µM
8,"CCS(=O)(=O)c1cccc(-c2c(C)nn3c(OCc4c(F)cccc4F)cc(C)cc23)c1 [Example 7, 7-[(2,6-Difluorobenzyl)oxy]-3-[3-(ethylsulphonyl)phenyl]-2,5-dimethylpyrazolo[1,5-a]pyridine]",0.065 µM
9,"Cc1cc(OCc2c(F)cccc2F)n2nc(C)c(-c3cnn(CC(C)(C)N)c3)c2c1 [Example 16, 1-(4-{7-[(2,6-Difluorobenzyl)oxy]-2,5-dimethylpyrazolo[1,5-a]pyridin-3-yl}-1H-pyrazol-1-yl)-2-methylpropane-2-amine]",0.1 µM
10,"CC(=O)c1cccc(-c2c(C)nn3c(OCc4c(F)cccc4F)cc(C)cc23)c1 [Example 2, 1-(3-{7-[(2,6-Difluorobenzyl)oxy]-2,5-dimethylpyrazolo[1,5-a]pyridin-3-yl}phenyl)ethanone]",0.53 µM
11,"Cc1cc(OCc2c(F)cccc2F)n2nc(C)c(-c3cc(F)ncc3F)c2c1 [Example 17, 7-[(2,6-Difluorobenzyl)oxy]-3-(2,5-difluoropyridin-4-yl)-2,5-dimethylpyrazolo[1,5-a]pyridine]",2 µM
12,"Cc1cc(OCc2c(F)cccc2F)n2nc(C)c(-c3cccc(CN4CCCC4)c3)c2c1 [Example 11, 7-[(2,6-Difluorobenzyl)oxy]-2,5-dimethyl-3-[3-(pyrrolidin-1-ylmethyl)phenyl]pyrazolo[1,5-a]pyridine]",0.03 µM
13,"Cc1cc(OCc2c(F)cccc2F)n2nc(C3CC3)c(-c3cnn(CCN4CCOCC4)c3)c2c1 [Example 30, 2-Cyclopropyl-7-[(2,6-difluorobenzyl)oxy]-5-methyl-3-{1-[2-(morpholin-4-yl)ethyl]-1H-pyrazol-4-yl}pyrazolo[1,5-a]pyridine]",0.01 µM
14,"Cc1cn2c(-c3nc(N)nc(N)n3)c(C)nc2c(OCc2c(F)cccc2F)n1 [Example 20, 6-{8-[(2,6-Difluorobenzyl)oxy]-2,6-dimethylimidazo[1,2-a]pyrazin-3-yl}-1,3,5-triazine-2,4-diamine trifluoroacetate]",2 µM
15,"Cc1cc(OCc2c(F)ccc(F)c2F)n2nc(C)c(-c3cnn(CCN4CCOCC4)c3)c2c1 [Example 32, 2,5-Dimethyl-3-{1-[2-(morpholin-4-yl)ethyl]-1H-pyrazol-4-yl}-7-[(2,3,6-trifluorobenzyl)oxy]pyrazolo[1,5-a]pyridine trifluoroacetate]",0.1 µM
16,"Cc1cc(OCc2c(F)cccc2F)n2nc(C)c(-c3cncc(C(=O)O)c3)c2c1 [Example 27, 5-{7-[(2,6-Difluorobenzyl)oxy]-2,5-dimethylpyrazolo[1,5-a]pyridin-3-yl}nicotinic acid]",2 µM
